In experiment [1] the test system is Oxyuranus microlepidotus venom. Briefly: Thrombelastography in human plasma of venom procoagulant activity after isolated exposure of venom to compounds. The class given is biochemical. As to conditions: venom 1 μg/ml in plasma; for procoagulant activity of venom: venom exposed ≥5 min in PBS to 100 μM CORM-2, 100 μM RuCl3 or both. On the procedure:
Thrombelastographic analyses. The volumes of subsequently described plasmatic and other additives summed to a final volume of 360 μl. Samples were composed of 320 μl of plasma; 16.4 μl of PBS, 20 μl of 200 mM CaCl2), and 3.6 μl of PBS or venom mixture, which were pipetted into a disposable cup in a Thrombelastograph® hemostasis system (Model 5000, Haemonetics Inc., Braintree, MA, USA) at 37° C., and then rapidly mixed by moving the cup up against and then away from the plastic pin five times. The following viscoelastic parameters described previously (see, Nielsen V G (2019) J Thromb Thrombolysis 47, 73-79; Gessner G, et al., (2017) Eur J Pharmacol 815, 33-41; Nielsen V G, Wagner M T, Frank N (2020) Int J Mol Sci 21, 2082; Lazić D, Arsenijević A, Puchta R, Bugarčić ŽD, Rilak A (2016) Dalton Trans 45, 4633; Hanif M, et al., (2017) ChemPlusChem 82, 841-847) were measured: time to maximum rate of thrombus generation (TMRTG): this is the time interval (minutes) observed prior to maximum speed of clot growth; maximum rate of thrombus generation (MRTG): this is the maximum velocity of clot growth observed (dynes/cm^2/second); and total thrombus generation (TTG, dynes/cm^2), the final viscoelastic resistance observed after clot formation.
O. microlepidotus. This venom was exposed to 0 or 100 μM CORM-2 in the presence of 0 or 100 μM RuCl3 in PBS for at least 5 minutes at room temperature prior to placement into plasma followed immediately with commencement of thrombelastographic analysis. The final concentration of this venom in plasma was 1 μg/ml.
Given the aforementioned, the experimental conditions utilized were: 1) V condition—venom in PBS; 2) Ru(II) condition—venom exposed to CORM-2; 3) Ru(III) condition—venom exposed to RuCl3; 4) Ru(II+III) condition—venom exposed to CORM-2 and RuCl3 simultaneously. After the 5 minute period at room temperature, 3.6 μl of one of these solutions was added to the plasma sample in the plastic thrombelastograph cup.
The volumes of subsequently described plasmatic and other additives summed to a final volume of 360 μl. Samples were composed of 320 μl of plasma; 16.4 μl of PBS, 20 μl of 200 mM CaCl2), and 3.6 μl of PBS or venom mixture, which were pipetted into a disposable cup in a Thrombelastograph® hemostasis system (Model 5000, Haemonetics Inc., Braintree, MA, USA) at 37° C., and then rapidly mixed by moving the cup up against and then away from the plastic pin five times. The following viscoelastic parameters described previously (see, Nielsen, V. G. J Thromb Thrombolysis 2019, 47, 73-79; Gessner, G.; et al., Eur J Pharmacol 2017, 815, 33-41; Nielsen, V. G.; Wagner, M. T.; Frank, N. Int J Mol Sci 2020, 21, 2082; Lazid, D.; et al., Dalton Trans 2016, 45, 4633; Hanif, M.; et al., ChemPlusChem 2017, 82, 841-847) were measured: time to maximum rate of thrombus generation (TMRTG): this is the time interval (minutes) observed prior to maximum speed of clot growth; maximum rate of thrombus generation (MRTG): this is the maximum velocity of clot growth observed (dynes/cm2/second); and total thrombus generation (TTG, dynes/cm2), the final viscoelastic resistance observed after clot formation. […]

The test system of another experiment is Echis leucogaster venom. To be noted: previously characterized by this laboratory; cited from earlier work.
For experiment [2], the system named is Pseudonaja textilis venom. As to conditions: previously characterized by this laboratory; cited from earlier work.
For experiment [3], the system named is Heloderma suspectum venom. Nature of the experiment: Thrombelastography in human plasma of venom procoagulant activity after isolated exposure of venom to compounds. Format: biochemical. As to conditions: venom 10 μg/ml in plasma. On the procedure: The volumes of subsequently described plasmatic and other additives summed to a final volume of 360 μl. Samples were composed of 320 μl of plasma; 16.4 μl of PBS, 20 μl of 200 mM CaCl2), and 3.6 μl of PBS or venom mixture, which were pipetted into a disposable cup in a Thrombelastograph® hemostasis system (Model 5000, Haemonetics Inc., Braintree, MA, USA) at 37° C., and then rapidly mixed by moving the cup up against and then away from the plastic pin five times. The following viscoelastic parameters described previously (see, Nielsen, V. G. J Thromb Thrombolysis 2019, 47, 73-79; Gessner, G.; et al., Eur J Pharmacol 2017, 815, 33-41; Nielsen, V. G.; Wagner, M. T.; Frank, N. Int J Mol Sci 2020, 21, 2082; Lazid, D.; et al., Dalton Trans 2016, 45, 4633; Hanif, M.; et al., ChemPlusChem 2017, 82, 841-847) were measured: time to maximum rate of thrombus generation (TMRTG): this is the time interval (minutes) observed prior to maximum speed of clot growth; maximum rate of thrombus generation (MRTG): this is the maximum velocity of clot growth observed (dynes/cm2/second); and total thrombus generation (TTG, dynes/cm2), the final viscoelastic resistance observed after clot formation.
H. suspectum. This venom was exposed to 0 or 1 mM CORM-3 in the presence of 0 or 100 μM RuCl3 in PBS for at least 5 minutes at room temperature prior to placement into plasma followed immediately with commencement of thrombelastographic analysis. The final concentration of this venom in plasma was 10 μg/ml.
Given the aforementioned, the experimental conditions utilized were: 1) V condition—venom in PBS; 2) Ru(II) condition—venom exposed to CORM-2 or CORM-3; 3) Ru(III) condition—venom exposed to RuCl3; 4) Ru(II+III) condition—venom exposed to CORM-2 or CORM-3 and RuCl3 simultaneously; 5) Pt(II) condition—venom exposed to carboplatin; and 6) Pt+Ru condition—venom exposed to carboplatin and CORM-2. After the 5 minute period at room temperature, 3.6 μl of one of these solutions was added to the plasma sample in the plastic thrombelastograph cup.

The mark [4] stands for this setting: 100 μM CORM-2, 100 μM RuCl3 or both.
[5] abbreviates: 1 mM CORM-3, 100 μM RuCl3 or both.

Entries after “also recorded” stand apart in the source; their conditions may differ.

For the molecule `[C-]#[O+].[C-]#[O+].[C-]#[O+].[C-]#[O+].[C-]#[O+].[C-]#[O+].[Cl][Ru][Cl].[Cl][Ru][Cl]` [CORM-2, tricarbonyldichlororuthenium(II) dimer], in experiment [1] (setting [4]), the “maximum rate of thrombus generation (MRTG)” value is given as “decrease”, the “time to maximum rate of thrombus generation (TMRTG)” value was “prolonged; also recorded: significant increase” and the “total thrombus generation (TTG)” value was “decrease”. Moreover, the “procoagulant activity of venom” value in experiment [1] is “significant decrease; also recorded: procoagulant activity inhibition”. Moreover, in the experiment on Echis leucogaster venom, the “CORM-2/ iRM Inhibition” value was “Yes”. The “CORM-2/ iRM Inhibition” value in experiment [2] was “Yes”.

On to `[Cl][Ru]([Cl])[Cl]` [RuCl3, ruthenium(III) chloride], for which the “procoagulant activity of venom” value in experiment [1] is “did not significantly affect”. For the same molecule, in experiment [3] (venom exposed ≥5 min in PBS to 1 mM CORM-3, 100 μM RuCl3 or both), the “procoagulant activity of venom / coagulation kinetic parameters” value is recorded as “no significant changes in any of the coagulation kinetic parameters”.

“Tricarbonylchloro(glycinato)ruthenium [CORM-3]”: in experiment [3] (setting [5]), the “maximum rate of thrombus generation (MRTG)” value is given as “no change”, the “time to maximum rate of thrombus generation (TMRTG)” value is listed as “significant increase” and the “total thrombus generation (TTG)” value is recorded as “no change”.

Values taken from patent publication US20260216239A1 (Arizona Board of Regents on Behalf of the University of …, priority 2020, published 2026).
